Data from article PMC11224109, “Synthesis and preclinical evaluation of novel ^18F-vancomycin-based tracers for the detection of bacterial infections using positron emission tomography” (European Journal of Nuclear Medicine and Molecular Imaging, 2024).
Like-named read-outs stand apart in the source and are kept apart here.

Tests used:
S. aureus [1] = experiment: In vitro tracer binding to S. aureus; set-up: species or system Staphylococcus aureus; settings: clinical isolate, culture OD600 about 3.0, 37 °C, sampled at 0, 15 and 30 min, washed twice, gamma counter
Procedure: (§1) Single colonies of clinical S. aureus and E. coli isolates were used to inoculate TSB and incubated overnight. From the overnight cultures, fresh cultures were started and grown to an optical density at 600 nm (OD600) of approximately 3.0. Both strains were incubated with tracer (3.5 MBq in 1 mL 0.9% saline) in a water bath at 37 °C. The final tracer concentration was 120 kBq ± 28 (38.6 pg ± 9.1 and 0.5 pg ± 0.1 of [^18F]BODIPY-FL-vancomycin and [^18F]PQ-VE1-vancomycin, respectively) per mL culture. At fixed time intervals (0, 15 and 30 min), aliquots were collected (2.0 mL in a 2 mL Eppendorf tube) and washed twice with sterile PBS (1.0 mL per washing step). In each washing step, the bacteria were pelleted by centrifugation (10.000 rpm, 60 s) and resuspended in fresh PBS. […] Measurements were corrected for background and decay. Results are reported as counts per s (Bq). To correlate bound tracer with the number of bacteria in a sample, the bacterial suspensions (2 ×) were plated and CFUs were counted.

E. coli [2] = experiment: In vitro tracer binding to E. coli; set-up: species or system Escherichia coli; settings: clinical isolate, culture OD600 about 3.0, 37 °C, sampled at 0, 15 and 30 min, washed twice, gamma counter
Procedure: as §1

[3] = test system: S. aureus USA300 MRSA strain; experiment: Competition with unlabeled vancomycin; type: binding, Staphylococcus aureus; settings: for Tracer binding to S. aureus at a concentration of 1024 µg/mL vancomycin / Tracer binding to S. aureus at vancomycin concentrations below 2 µg/mL / Tracer binding to S. aureus at vancomycin concentrations of up to 64 µg/mL: S. aureus USA300, OD600 0.2, 125 kBq tracer per mL, 30 min incubation, gamma counter
Procedure: [^18F]FB-vancomycin was excluded due to its limited in vitro and in vivo stability. On the day of the experiment, a fresh culture was started in 10 mL of TSB and grown to an OD600 of 2.0. […] Bacteria were added to the dilutions to obtain a final OD600 of 0.2 and the vial was briefly vortexed to ensure proper mixing. Tracer was added (125 kBq per mL, 40.3 pg and 0.5 pg of [^18F]BODIPY-FL-vancomycin and [^18F]PQ-VE1-vancomycin, respectively) and the vial was vortexed again. After 30 min incubation, aliquots were collected in 2 mL Eppendorf tubes and washed twice with PBS by centrifugation. […] Measurements were corrected for background and decay. Results are reported as 10^3 counts per s (kBq).

[4] = test system: S. epidermidis ATCC 35,984; settings: ATCC 35, 17 h
Procedure: From a single colony an overnight culture was inoculated in Mueller Hinton Broth (MHB) and incubated overnight. On the day of the experiment, a fresh culture was started in 10 mL of MHB until exponential phase was reached. From this, the culture was diluted to an OD600 of 0.01 for the MIC experiment. […] Growth was recorded using a BioTeK Synergy2 microplate spectrophotometer (Agilent, Santa Clara, United States).

[5] = up to 120 min, previously shown; cited from earlier work
Procedure: Tracer stability was assessed in both PBS and human plasma. […] In contrast, > 90% of the [^18F]BODIPY-FL-vancomycin remained stable in PBS and plasma for up to 120 min, as was also previously shown for [^18F]PQ-VE1-vancomycin [44].

E. coli [6] = settings: previously reported; cited from earlier work
Procedure: (§2) In vitro binding of [^18F]BODIPY-FL-vancomycin and [^18F]FB-vancomycin to the Gram-positive bacterium S. aureus and the Gram-negative bacterium E. coli was assayed by incubating the bacteria with either one of the two tracers and collecting samples at fixed time intervals to determine the radioactivity associated with the bacteria.

S. aureus [7] = settings: previously reported; cited from earlier work
Procedure: as §2

Compound | Binding to S. aureus (S. aureus [1]) | Binding to E. coli (E. coli [2]) | Vancomycin concentrations at which tracer binding is outcompeted, compared with [^18F]PQ-VE1-vancomycin ([3]; S. aureus USA300, 30 min incubation) | Tracer binding to S. aureus at a concentration of 1024 µg/mL vancomycin [3] | Tracer binding to S. aureus at vancomycin concentrations below 2 µg/mL [3] | Tracer binding to S. aureus at vancomycin concentrations of up to 64 µg/mL [3] | MIC [4] [µg/mL] | Tracer remaining stable in PBS [5] | Tracer remaining stable in human plasma [5] | Binding to E. coli (E. coli [6]) | Binding to S. aureus (S. aureus [7])
CC(C)C[C@H](C(=O)N[C@H]1C(=O)N[C@@H](CC(N)=O)C(=O)N[C@H]2C(=O)N[C@H]3C(=O)N[C@H](C(=O)N[C@H](C(=O)O)c4cc(O)cc(O)c4-c4cc3ccc4O)[C@H](O)c3ccc(c(Cl)c3)Oc3cc2cc(c3O[C@@H]2O[C@H](CO)[C@@H](O)[C@H](O)[C@H]2O[C@H]2C[C@](C)(N)[C@H](O)[C@H](C)O2)Oc2ccc(cc2Cl)[C@H]1O)N(C)C(=O)c1ccc(F)cc1 [[^18F]FB-vancomycin] | no bacterial binding was observed | no bacterial binding was observed | – | – | – | – | – | – | – | – | –
Cc1cc(C)n2c1C=C1C=CC(CCC(=O)N(C)[C@H](CC(C)C)C(=O)N[C@H]3C(=O)N[C@@H](CC(N)=O)C(=O)N[C@H]4C(=O)N[C@H]5C(=O)N[C@H](C(=O)N[C@H](C(=O)O)c6cc(O)cc(O)c6-c6cc5ccc6O)[C@H](O)c5ccc(c(Cl)c5)Oc5cc4cc(c5O[C@@H]4O[C@H](CO)[C@@H](O)[C@H](O)[C@H]4O[C@H]4C[C@](C)(N)[C@H](O)[C@H](C)O4)Oc4ccc(cc4Cl)[C@H]3O)=[N+]1[B-]2(F)F [[^18F]BODIPY-FL-vancomycin] | rapid and selective binding to S. aureus | not to E. coli | slightly lower | reduced to baseline | not significantly inhibited | signal over background was still detected | 16 | – | – | – | –
CN[C@H](CC(C)C)C(=O)N[C@H]1C(=O)N[C@@H](CC(N)=O)C(=O)N[C@H]2C(=O)N[C@H]3C(=O)N[C@H](C(=O)N[C@H](C(=O)O)c4cc(O)cc(O)c4-c4cc3ccc4O)[C@H](O)c3ccc(c(Cl)c3)Oc3cc2cc(c3O[C@@H]2O[C@H](CO)[C@@H](O)[C@H](O)[C@H]2O[C@H]2C[C@](C)(NC(=O)c3ccc4c5c(c6ccccc6c4c3)OCC(OCCF)O5)[C@H](O)[C@H](C)O2)Oc2ccc(cc2Cl)[C@H]1O (stereo partly shown) [[^18F]PQ-VE1-vancomycin] | – | – | – | reduced to baseline | not significantly inhibited | signal over background was still detected | – | over 90% | over 90% | not to E. coli | rapid and selective binding to S. aureus
